Patent publication US20230293517A1, “ANTAGONIST COMPOUNDS” (AdoRx Therapeutics Limited, priority 2020, published 2023)
pKi: −log10 of the molar value. Several values for one entry are separate records, joined by “and”; a condition that tells them apart may be missing. Identical values can stand only once. Counter-ions that a name gives are not always drawn. Like-named read-outs stand apart in the source and are kept apart here.

Legend:
[1] = target: human Adenosine A2a receptor (Homo sapiens (Human), UniProt P29274); assay: Adenosine receptor TR-FRET binding assay (A2a); conditions: inhibition of binding of 100 nM CA200645, CHO cell membranes
Chain of human Adenosine A2a receptor (P29274 whole entry): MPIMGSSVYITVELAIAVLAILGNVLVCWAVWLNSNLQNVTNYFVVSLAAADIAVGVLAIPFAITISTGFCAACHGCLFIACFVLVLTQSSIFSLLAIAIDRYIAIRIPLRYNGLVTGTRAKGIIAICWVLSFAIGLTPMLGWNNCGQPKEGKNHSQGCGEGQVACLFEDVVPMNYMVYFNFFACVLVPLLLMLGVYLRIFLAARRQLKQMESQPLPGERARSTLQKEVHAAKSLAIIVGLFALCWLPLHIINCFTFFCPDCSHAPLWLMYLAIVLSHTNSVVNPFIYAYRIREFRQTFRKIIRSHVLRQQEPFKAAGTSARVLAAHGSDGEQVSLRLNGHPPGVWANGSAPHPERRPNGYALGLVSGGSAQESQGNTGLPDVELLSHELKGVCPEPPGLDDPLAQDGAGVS
Procedure: (§1) Biological Example 1—Adenosine Receptor Time-Resolved Fluorescence Resonance Energy Transfer (TRFRET) Binding Assay
(§2) All FRET binding experiments were conducted at room temperature in white 384-well plates, in assay binding buffer containing 1×LabMed (Cisbio, France), 100 μg/mL saponin, 1% DMSO and 0.02% pluronic acid. Binding of the fluorescently labelled Adenosine receptor antagonist XAC (CA200645, FRET acceptor) to terbium-labelled A1, A2a, A2b and A3 adenosine receptors (FRET donors) was detected by time-resolved FRET due to the close proximity of the donor and acceptor in a binding event. To investigate the ability of unlabelled test compounds to bind to Adenosine A1, A2a, A2b and A3 receptors, dose response curves were constructed that determined the ability of a range of concentrations to inhibit the binding of 30 nM CA200645 to the A2b receptor and 100 nM CA200645 to the A1, A2a, and A3 receptor.
(§3) Serial dilution (1:3 dilutions) of test compounds in neat DMSO and transfer of a 400 nL sample of test compound into the assay plate was carried out using the Mosquito (TTP Labtech, UK). The compound samples were incubated for 2 hours at room temperature with a fixed concentration of CA200645 defined for each receptor (see above) and CHO cell membranes containing the human Adenosine A1 (0.5 μg/well), A2a (0.3 μg/well), A2b (1 μg/well) or A3 (1 μg/well) receptor in 40 μL of assay buffer. Total and non-specific binding of CA200645 was determined in the absence and presence of 10 μM XAC, respectively. Following 2 hours incubation, the level of CA200645 binding was detected on a Pherastar FSX (BMG Labtech, Germany) using standard TR-FRET settings. The terbium donor was excited with three laser flashes at a wavelength of 337 nm, and donor and acceptor emission was detected at 620 nm and 665 nm wavelengths, respectively. FRET ratios were obtained by multiplying the acceptor/donor ratio value by 10,000. Specific binding was determined by subtracting the non-specific binding FRET ratio from the total binding FRET ratio. Compound IC50 curves were analysed using GraphPad Prism 7.0 (GraphPad, USA) and Ki affinity values were determined from the obtained IC50 values using the method of Cheng and Prusoff.

[2] = target: human Adenosine A2b receptor (Homo sapiens (Human), UniProt P29275); assay: Adenosine receptor TR-FRET binding assay (A2b)
Chain of human Adenosine A2b receptor (P29275 whole entry): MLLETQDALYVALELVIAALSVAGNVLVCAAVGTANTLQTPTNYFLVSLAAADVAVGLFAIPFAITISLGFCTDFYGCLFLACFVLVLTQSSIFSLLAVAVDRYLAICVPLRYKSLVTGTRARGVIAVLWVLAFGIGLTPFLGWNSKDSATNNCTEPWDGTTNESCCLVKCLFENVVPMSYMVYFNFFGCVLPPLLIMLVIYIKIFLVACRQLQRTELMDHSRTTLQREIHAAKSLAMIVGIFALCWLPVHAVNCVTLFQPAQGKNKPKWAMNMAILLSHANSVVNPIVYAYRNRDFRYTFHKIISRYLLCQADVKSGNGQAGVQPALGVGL
Procedure: as §1, §2, §3

[3] = target: human Adenosine A1 receptor (Homo sapiens (Human), UniProt P30542); assay: Adenosine receptor TR-FRET binding assay (A1); conditions: inhibition of binding of 100 nM CA200645, CHO cell membranes
Chain of human Adenosine A1 receptor (P30542 whole entry): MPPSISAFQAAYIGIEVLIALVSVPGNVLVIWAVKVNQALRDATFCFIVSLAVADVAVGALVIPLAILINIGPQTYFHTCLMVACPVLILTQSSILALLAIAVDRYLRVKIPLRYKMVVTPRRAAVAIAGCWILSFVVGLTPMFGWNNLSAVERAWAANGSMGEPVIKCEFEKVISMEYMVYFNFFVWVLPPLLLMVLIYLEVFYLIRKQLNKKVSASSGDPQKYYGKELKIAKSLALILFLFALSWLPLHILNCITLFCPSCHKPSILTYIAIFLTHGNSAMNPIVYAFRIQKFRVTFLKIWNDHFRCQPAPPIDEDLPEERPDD
Procedure: as §1, §2, §3

[4] = TR-FRET, inhibition of binding of 30 nM CA200645, CHO cell membranes

pKi [1]	pKi [2]	pKi [3]	pKi [2, 4]	Compound	pKi ([3]; formate salt)	pKi ([2]; TR-FRET, inhibition of binding of 30 nM CA200645, CHO cell membranes, formate salt)
8.46	8.12			Cc1cc(-c2sc(NC(=O)N3C[C@@H]4NCCO[C@H]4C3)nc2-c2cccc(C#N)c2)cc(C)n1 (racemic) [Example 14.3, rac-(4aS,7aS)—N-[4-(3-Cyanophenyl)-5-(2,6-dimethyl-4-pyridyl)thiazol-2-yl]-3,4,4a,5,7,7a-hexahydro-2H-pyrrolo[3,4-b][1,4]oxazine-6-carboxamide 2,2,2-trifluoroacetic acid salt]		
7.89		6.96	7.10	Cc1cc(-c2sc(NC(=O)N3C[C@@H](C)NC[C@@H]3C)nc2-c2cccc(C#N)c2)cc(C)n1 (relative stereo) [Example 7.11, trans-N-[4-(3-Cyanophenyl)-5-(2,6-dimethyl-4-pyridyl)thiazol-2-yl]-2,5-dimethyl-piperazine-1-carboxamide]		
8.99		6.68	8.24	Cc1cc(-c2sc(NC(=O)N3CCC4(CC3)CNCCO4)nc2-c2cccc(C#N)c2)cc(C)n1 [Example 7.3, N-[4-(3-Cyanophenyl)-5-(2,6-dimethyl-4-pyridyl)thiazol-2-yl]-1-oxa-4,9-diazaspiro[5.5]undecane-9-carboxamide]		
8.39		6.79	7.65	Cc1cc(-c2sc(NC(=O)N3C[C@H]4CC[C@@H]3CN4)nc2-c2cccc(C#N)c2)cc(C)n1 [Example 7.6, (1R,4R)—N-[4-(3-Cyanophenyl)-5-(2,6-dimethyl-4-pyridyl)thiazol-2-yl]-2,5-diazabicyclo[2.2.2]octane-2-carboxamide]		
8.28		7.31	7.74	Cc1cc(-c2sc(NC(=O)N3C[C@H](C)NC[C@@H]3C)nc2-c2cccc(C#N)c2)cc(C)n1 [Example 7.7, (2S,5S)—N-[4-(3-Cyanophenyl)-5-(2,6-dimethyl-4-pyridyl)thiazol-2-yl]-2,5-dimethyl-piperazine-1-carboxamide]		
8.17		6.71	7.22	Cc1cc(-c2sc(NC(=O)N3[C@H](C)CNC[C@H]3C)nc2-c2cccc(C#N)c2)cc(C)n1 [Example 7.8, (2R,6R)—N-[4-(3-Cyanophenyl)-5-(2,6-dimethyl-4-pyridyl)thiazol-2-yl]-2,6-dimethyl-piperazine-1-carboxamide]		
7.99		7.21	7.35	Cc1cc(-c2sc(NC(=O)N3CCNCC3(C)C)nc2-c2cccc(C#N)c2)cc(C)n1 [Example 7.9, N-[4-(3-Cyanophenyl)-5-(2,6-dimethyl-4-pyridyl)thiazol-2-yl]-2,2-dimethyl-piperazine-1-carboxamide]		

More lines, now with the values behind:

Compound	pKi [1]	pKi [2]	pKi [3]	pKi [2, 4]	pKi ([3]; formate salt)	pKi ([2]; TR-FRET, inhibition of binding of 30 nM CA200645, CHO cell membranes, formate salt)
Cc1cc(-c2sc(NC(=O)N3CCCC3CC(C)(C)O)nc2-c2cccc(C#N)c2)cc(Cl)n1 (stereo not shown) [Example 3.3]	8.67		6.87	8.41		
Cc1cc(-c2sc(NC(=O)N3CCN(CC(C)(C)O)CC3)nc2-c2cccc(C#N)c2)cc(C)n1 [Example 4.34, N-[4-(3-Cyanophenyl)-5-(2,6-dimethyl-4-pyridyl)thiazol-2-yl]-4-(2-hydroxy-2-methyl-propyl)piperazine-1-carboxamide]	7.91		6.57	7.89		
Cc1cc(-c2sc(NC(=O)N3CCC4(CCN4C)C3)nc2-c2cccc(C#N)c2)cc(C)n1 (stereo not shown) [Example 4.36, N-[4-(3-Cyanophenyl)-5-(2,6-dimethyl-4-pyridyl)thiazol-2-yl]-1-methyl-1,7-diazaspiro[3.4]octane-7-carboxamide formate salt]	8.61		6.50	7.86		
Cc1cc(-c2sc(NC(=O)N3CCN(C(C)(C)CO)CC3)nc2-c2cccc(C#N)c2)cc(C)n1 [Example 4.37, N-[4-(3-Cyanophenyl)-5-(2,6-dimethyl-4-pyridyl)thiazol-2-yl]-4-(2-hydroxy-1,1-dimethyl-ethyl)piperazine-1-carboxamide]	8.37		6.26	7.57		
Cc1cc(-c2sc(NC(=O)N3CCN4CCC[C@H]4C3)nc2-c2cccc(C#N)c2)cc(C)n1 [Example 4.38, (8aS)-N-[4-(3-Cyanophenyl)-5-(2,6-dimethyl-4-pyridyl)thiazol-2-yl]-3,4,6,7,8,8a-hexahydro-1H-pyrrolo[1,2-a]pyrazine-2-carboxamide formate salt]					6.74 and 7.12	8.09 and 8.46
Cc1cc(-c2sc(NC(=O)N3C[C@H]4CC[C@@H](C3)N(C)C4)nc2-c2cccc(C#N)c2)cc(C)n1 [Example 6.5, (1S,5S)-N-[4-(3-Cyanophenyl)-5-(2,6-dimethyl-4-pyridyl)thiazol-2-yl]-6-methyl-3,6-diazabicyclo[3.2.2]nonane-3-carboxamide]	8.33		7.03	7.64		
Cc1cc(-c2sc(NC(=O)N3CCC(C)(C#N)CC3)nc2-c2cccc(C#N)c2)cc(C2COC2)n1 [Example 6.111, 4-Cyano-N-[4-(3-cyanophenyl)-5-[2-methyl-6-(oxetan-3-yl)-4-pyridyl]thiazol-2-yl]-4-methyl-piperidine-1-carboxamide]	9.70		7.74	8.19		
Cc1cc(-c2sc(NC(=O)N3CC(N4CCOCC4)C3)nc2-c2cccc(C#N)c2)cc(C)n1 [Example 6.112, N-[4-(3-Cyanophenyl)-5-(2,6-dimethyl-4-pyridyl)thiazol-2-yl]-3-morpholino-azetidine-1-carboxamide]	8.37		6.47	7.63		
Cc1cc(-c2sc(NC(=O)N3CCN(C4CCOCC4)CC3)nc2-c2cccc(C#N)c2)cc(C)n1 [Example 6.113, N-[4-(3-Cyanophenyl)-5-(2,6-dimethyl-4-pyridyl)thiazol-2-yl]-4-tetrahydropyran-4-yl-piperazine-1-carboxamide diformate salt]	7.97		6.44	8.08		
Cc1cc(-c2sc(NC(=O)N3CC(N4CCCC4)C3)nc2-c2cccc(C#N)c2)cc(C)n1 [Example 6.114, N-[4-(3-Cyanophenyl)-5-(2,6-dimethyl-4-pyridyl)thiazol-2-yl]-3-pyrrolidin-1-yl-azetidine-1-carboxamide]	8.00		6.62	7.64		
Cc1cc(-c2sc(NC(=O)N3CC(N(C)C)C3)nc2-c2cccc(C#N)c2)cc(C)n1 [Example 6.115, N-[4-(3-Cyanophenyl)-5-(2,6-dimethyl-4-pyridyl)thiazol-2-yl]-3-(dimethylamino)azetidine-1-carboxamide]	8.10		6.75	7.54		
Cc1cc(-c2sc(NC(=O)N3CCC(CN4CCOCC4)CC3)nc2-c2cccc(C#N)c2)cc(C)n1 [Example 6.116, N-[4-(3-Cyanophenyl)-5-(2,6-dimethyl-4-pyridyl)thiazol-2-yl]-4-(morpholinomethyl)piperidine-1-carboxamide formate salt]	8.13		6.55	8.00		
Cc1cc(-c2sc(NC(=O)N3CC4CN(C)CC43)nc2-c2cccc(C#N)c2)cc(C)n1 (stereo not shown) [Example 6.120, N-[4-(3-Cyanophenyl)-5-(2,6-dimethyl-4-pyridyl)thiazol-2-yl]-3-methyl-3,6-diazabicyclo[3.2.0]heptane-6-carboxamide]	7.95		6.91	7.19		
Cc1cc(-c2sc(NC(=O)N3CCN4CCC3C4)nc2-c2cccc(C#N)c2)cc(C)n1 (stereo not shown) [Example 6.121, N-[4-(3-Cyanophenyl)-5-(2,6-dimethyl-4-pyridyl)thiazol-2-yl]-1,4-diazabicyclo[3.2.1]octane-4-carboxamide]	8.71		6.91	8.17		
Cc1cc(-c2sc(NC(=O)N3C4CCC3CNC4)nc2-c2cccc(C#N)c2)cc(C)n1 [Example 7.4, N-[4-(3-Cyanophenyl)-5-(2,6-dimethyl-4-pyridyl)thiazol-2-yl]-3,8-diazabicyclo[3.2.1]octane-8-carboxamide]	8.56		7.24	7.87		
Cc1cc(-c2sc(NC(=O)N3C4CNCC3C4)nc2-c2cccc(C#N)c2)cc(C)n1 [Example 7.5, N-[4-(3-Cyanophenyl)-5-(2,6-dimethyl-4-pyridyl)thiazol-2-yl]-3,6-diazabicyclo[3.1.1]heptane-6-carboxamide]	8.90		8.05	7.92		
